In patent publication US10363231B2, “Compounds and methods of treating ocular disorders” (CASE WESTERN RESERVE UNIVERSITY, priority 2014, dated 2019):
“Also recorded” adds a separate entry of the source.

Assays:
RPE65 = molecular target: T1, RPE65 (Bos taurus, UniProt Q28175); test: Retinoid isomerase activity assay (11-cis-retinol production in RPE microsomes); format: biochemical, Bovine; details: for IC50: primary amine, decline in 11-cis-retinol production in RPE microsomes, read-out: Inhibition of RPE65
T1 construct: from tissue; host or cells: bovine retinal pigment epithelium (RPE) microsomes
Method: Bovine RPE microsomes were isolated from RPE homogenates by differential centrifugation as previously described. The resulting microsomal precipitate was resuspended in 10 mM Bis-Tris propane/HCl buffer, pH 7.4, to achieve a total protein concentration of […]. Then the mixture was placed in a quartz cuvette and irradiated for 6 min at 4° C. with a ChromatoUVE transilluminator (model TM-15; UVP) to eliminate residual retinoids. After irradiation, DTT was added to the RPE microsomal mixture to achieve a final concentration of 5 mM.
[…] The resulting mixture was pre incubated at room temperature for 5 min. Then 1 μl of all-trans-retinol (in DMF, final concentration 20 μM) was added. The resulting mixture was incubated at 37° C. for 15 min to 2 h. The reaction was quenched by adding 300 μl of methanol, and products were extracted with 300 μl of hexanes. Production of 11-cis-retinol was quantified by normal phase HPLC with 10% (v/v) ethyl acetate in hexanes as the eluent at a flow rate of 1.4 ml·min^−1. Retinoids were detected by monitoring their absorbance at 325 nm and quantified based on a standard curve representing the relationship between the amount of 11-cis-retinol and the area under the corresponding chromatographic peak.
Primary amines of compounds derived from the aldehydes were subsequently tested for their ability to inhibit the RPE65-dependent retinoid isomerization reaction in dose- and time dependent reactions as exemplified by QEB-B-001 (FIG. 3B). Amines were incubated with RPE microsomes in the presence of all-trans-retinol and the 11-cis-retinoid binding protein, CRALBP.
Progress of the enzymatic reaction was monitored by HPLC separation of retinoids and quantification of 11-cis-retinol with a decrease of 11-cis-retinol production reflecting inhibition of RPE65 by a tested amine. […] This moderate inhibition could be enhanced by shortening the polyene chain length (TEA amines) or diminished by introducing an extra positive charge into the tested compounds (QEA-G amines).

Abca4^−/−Rdh8^−/− mice [1] = test: Light-induced acute retinal degeneration in Abca4−/−Rdh8−/− mice (OCT, 11-cis-retinal, ERG); format: in vivo; details: for OCT imaging of the retina: 3 d after bleaching; for average ONL thickness: OCT 3 d after bleaching
Method: Abca4^−/−Rdh8^−/− double knockout mice were generated as previously described. Mice were housed in the animal facility at the School of Medicine, Case Western Reserve University, where they were maintained under either complete darkness or in a 12-h light (˜300 lux) and 12-h dark cycle. All tested primary amines were suspended in 100 μl of soybean oil with less than 10% (v/v) DMSO and were administered by oral gavage with a 22-gauge feeding needle. Experimental manipulations in the dark were done under dim red light transmitted through a Kodak No. 1 safelight filter (transmittance >560 nm). All animal procedures and experiments were approved by the Case Western Reserve University Animal Care Committees and conformed to recommendations of the American Veterinary Medical Association Panel on Euthanasia and the Association of Research for Vision and Ophthalmology.
After dark adaptation for 24 h, 4-week-old male or female Abca4^−/−Rdh8^−/− mice with pupils dilated by 1% tropicamide were exposed to fluorescent light (10,000 lx; 150 W spiral lamp, Commercial Electric) for 1 h in a white paper bucket (Papersmith), and then kept in the dark for an additional 3 d. Development of retinal degeneration was then examined by ultra-high resolution spectral-domain OCT (SDOCT; Bioptigen) and ERGs as previously described.
Then animals were euthanized and their eyes were collected and homogenized in 10 mM sodium phosphate buffer, pH 7.4, containing 50% methanol (v/v) and 40 mM hydroxylamine. The resulting mixture was extracted with 4 ml of hexanes. Extracts were dried in vacuo, reconstituted in 300 μl of hexanes and 100 μl of the extract was injected into an HPLC for analysis with 10% (v/v) ethyl acetate in hexanes.
For practical reasons, only eight of these leading compounds (QEA-B-001-NH2, B-002-NH2, C-001-NH2, C-003-NH2, C006-NH2, E-002-NH2, TEA-B-002-NH2, and C00-2-NH2) along with retinylamine as a control were selected for further testing in Abca4^−/−Rdh8^−/− mice, an animal model for light-induced retinal degeneration (Table 2). Additionally, two novel amines with moderate inhibition of RPE65 (QEA-A-006-NH2 and QEA-B-003-NI 12) and one with strong inhibition (QEA-A-005-NH2) were added to the first test group for comparison. Mice were gavaged with 1 mg of a test compound and then kept in the dark for 24 h prior to being exposed to bright light (˜10,000 lux) for 1 h. Retinal damage was assessed with OCT that measured the thickness of the outer nuclear layer and by quantification of tissue 11-cis retinal levels. An example is shown for imaging results in FIG. 4A and for 11-cis-retinal quantification in FIG. 4B. Additionally, extracts of livers obtained from treated mice were analyzed by HPLC to estimate the amounts of corresponding amides (FIG. 4C).
Once the time course of retinylamine's inhibitory effect was established, we investigated the correlation between the level of inhibition and the protective effect on the retina. Four week old Abca4^−/−Rdh8^−/− mice were gavaged with 0.1, 0.2, and 0.5 mg of retinylamine, respectively, and kept in the dark for 24 h. Mice then were bleached with 10,000 lux bright light for 1 h. Measured as described above, the recovery of visual chromophore was inhibited by about 40%, 80%, and 95%, respectively by these tested drug doses (FIGS. 5B and 5C). Bleached mice were kept in the dark for 3 d, and then imaged by OCT (FIGS. 6A and 6B). […] The average ONL thickness in the latter group of mice was 51.1±5.8 μm, well within the range of healthy retinas. […] Their average ONL thickness was 34.4±17.4 μm. […] In an equivalent experiment, mice were kept in the dark for 7 days prior to quantification of visual chromophore levels. (Amounts of 11-cis-retinal reflect the concentration of rhodopsin and thus can be used to verify the health of photoreceptor cells).

WT mice = test: Visual chromophore recovery assay (inhibition of the visual cycle in vivo); details: for inhibition of the recovery of visual chromophore: 24 h after gavage; for recovery of 11-cis-retinal in the eye, of the pre-bleached level: at 6 h after bleaching
Abca4^−/−Rdh8^−/− mice [2] = test: Light-induced acute retinal degeneration in Abca4−/−Rdh8−/− mice (OCT, 11-cis-retinal, ERG); format: in vivo; details: 2 mg; dark 24 h, then 10,000 lux 1 h
[3] = 0.1 mg, dark 7 days after bleaching
[4] = 0.2 mg, dark 7 days after bleaching

T1 sequence (Q28175 whole entry): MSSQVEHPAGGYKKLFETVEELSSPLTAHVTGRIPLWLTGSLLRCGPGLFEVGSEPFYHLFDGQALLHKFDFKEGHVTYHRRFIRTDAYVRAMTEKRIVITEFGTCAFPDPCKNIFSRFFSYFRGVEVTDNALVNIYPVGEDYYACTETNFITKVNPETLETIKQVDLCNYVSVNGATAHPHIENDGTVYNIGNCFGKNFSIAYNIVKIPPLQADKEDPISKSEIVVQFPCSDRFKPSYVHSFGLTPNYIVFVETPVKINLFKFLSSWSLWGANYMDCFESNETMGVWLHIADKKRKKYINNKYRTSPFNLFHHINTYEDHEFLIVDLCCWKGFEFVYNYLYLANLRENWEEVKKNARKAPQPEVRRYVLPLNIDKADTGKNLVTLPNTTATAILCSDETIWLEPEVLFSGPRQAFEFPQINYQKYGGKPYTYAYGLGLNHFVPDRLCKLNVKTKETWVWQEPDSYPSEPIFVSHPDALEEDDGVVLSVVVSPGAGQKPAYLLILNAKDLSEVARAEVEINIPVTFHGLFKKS

## CC(/C=C/C=C(/C=C/C1=CCCCC1)C(C)(C)C)=C\CN [QEA-B-001-NH2]
RPE65
  inhibition of RPE65: modest or non-inhibitor; also recorded: did not inhibit
  IC50: > 200 µM
Abca4^−/−Rdh8^−/− mice [1]; gavaged with 1 mg, dark 24 h, ~10,000 lux 1 h, OCT
  prevention of light-induced retinal degeneration: inability to prevent

## CC1=C(/C=C/C(C)=C/C=C/C(C)=C/CN)C(C)(C)CCC1 [QEA-A-001-NH2, retinylamine]
WT mice; 0.1 mg
  inhibition of the recovery of visual chromophore: about 40%
WT mice; 0.2 mg
  inhibition of the recovery of visual chromophore: ~80%
WT mice; 0.2 mg, day 3 after administration
  recovered 11-cis-retinal: 61±2.2%
WT mice; 0.2 mg, day 7
  inhibitory effect on 11-cis-retinal regeneration: nearly disappeared
WT mice; 0.2 mg, light 2 h after administration
  recovery of 11-cis-retinal in the eye, of the pre-bleached level: 50±13%
WT mice; 0.2 mg, light 24 h after administration
  recovery of 11-cis-retinal in the eye, of the pre-bleached level: 22±5.0%
WT mice; 0.5 mg
  inhibition of the recovery of visual chromophore: ~95%
WT mice; 0.5 mg, 7 days after administration
  recovery of 11-cis-retinal: 56±9.1%
WT mice; 0.1 to 0.5 mg, gavage 2 h to 7 days before light
  time point with the strongest inhibition of the retinoid cycle: 24 h
WT mice; gavage 2 h to 7 days before light, 11-cis-retinal 6 h after bleaching
  duration of inhibition of the retinoid cycle: more than 7 days
RPE65
  IC50: < 10 µM
Abca4^−/−Rdh8^−/− mice [1]; 0.1 mg dose, bright light exposure
  protection against retinal degeneration: failed to protect
Abca4^−/−Rdh8^−/− mice [1]; 0.1 mg
  OCT imaging of the retina: severe retinal degeneration
Abca4^−/−Rdh8^−/− mice [1]; [3]
  11-cis-retinal levels: 323±48 pmol/eye
  ERG responses: attenuated ERG responses
Abca4^−/−Rdh8^−/− mice [1]; 0.2 mg
  OCT imaging of the retina: partially protected
  average ONL thickness: 34.4±17.4 μm
Abca4^−/−Rdh8^−/− mice [1]; [4]
  11-cis-retinal levels: 445±37 pmol/eye
  ERG scotopic a wave responses: same ERG scotopic a wave responses as unbleached control mice
Abca4^−/−Rdh8^−/− mice [1]; 0.5 mg
  OCT imaging of the retina: clear intact ONL image
  average ONL thickness: 51.1±5.8 μm
Abca4^−/−Rdh8^−/− mice [1]; 0.5 mg, dark 7 days after bleaching
  ERG scotopic a wave responses: same ERG scotopic a wave responses as unbleached control mice
Abca4^−/−Rdh8^−/− mice [2]
  protection of ONL (averaged ONL thickness by OCT): protected
